melting point [°C] | SMILES
139 to 140 | N#CC(O)C1(F)CCN(C(=O)c2ccc(F)c(Cl)c2)CC1 (centres undefined)
205 to 215 | COc1cccc(OC)c1C(=O)NC(=O)Nc1ccc(-c2ccc(Cl)cc2)cn1
121 to 124 | CC(C)(C)n1ncc(OCc2ccc(OCc3ccc(F)cc3)nc2)c(Cl)c1=O
273 to 274 | Cc1nc(-c2ccc(N3CCOCC3)cc2)sc1-c1ccnc(Nc2ccc(N3CCOCC3)cc2)n1
171 to 173 | OC(c1ccncc1)c1c[nH]c2ccc(F)cc12 (centres undefined)
87 to 88 | CCCCCC(=O)c1c(O)oc(=O)c(C(=O)CCCCC)c1O
273 | CC1(C)Cc2cc(O)c(Cl)c(Cl)c2C1=O
221 to 223 | C=C(C)c1nnc(-c2cc3c([nH]c2=O)CCN(Cc2ccccc2)C3)o1
70.7 | CC(C)N1CCN(C(=O)c2cc([N+](=O)[O-])cc(C(F)(F)F)c2)CC1
95 | COC(=O)CCCC(=N)Nc1[nH]c2ccccc2c1C(=O)OC
181 to 184 | N#Cc1nn(-c2c(Cl)cc(-c3ccc(C(F)(F)F)cc3)cc2Cl)c(N)c1SC(F)(F)F
255 to 261 | CC1NC(=O)NN=C1c1ccc(N(C)C)cc1 (centres undefined)
144 to 145 | FC(F)(F)c1ccc2c(c1)nc(/C=C/c1ccccc1)n2-c1ccccn1
180 to 182 | CC(=O)NCCn1ccc(=O)c(OCc2ccccc2)c1C(O)c1ccccc1 (centres undefined)
107 to 109 | CCOC(=O)Cc1cccc(C(=O)c2ccc(Br)cc2)c1N
157 to 160 | Cc1cc(C(O)(c2ccc(Cl)cc2)C(F)(F)F)ccc1N (centres undefined)
108 to 110 | CCOC(=O)C(=Cc1cccn2c(Br)c(C)nc12)N=[N+]=[N-]
89 | COc1cc(C)c(C(=O)c2c(Cl)cccc2Cl)cc1Oc1ccccc1
254 to 255 | Oc1cc(CN/C=C2\CN=Cc3ccc(I)cc32)ccc1OC(F)F
63 to 66 | CC(C)(C(Cl)c1ccc2c(c1)OCO2)[N+](=O)[O-] (centres undefined)
189 to 192 | NC(=O)c1nnn(Cc2ccc(Cl)c(C(=O)c3ccc(Cl)cc3)c2)c1N
59 to 61 | COC1=C(OC)C(=O)C2=C(CC(CO)(CCCCCCCCO)C2)C1=O
32 to 33 | O=C(O)CCCCCCCCc1cccs1
127 to 129 | CCCCCCCCCCNC(=O)[C@@H]1C[C@H]1c1ccc([N+](=O)[O-])cc1 (relative stereo)
157 to 158 | NC(=O)c1c(N)sc2c1CCC1(C2)OCCO1

melting point [°C] | SMILES
93 to 95 | COC(=O)C(O)c1ccc2c(c1)OCO2 (centres undefined)
157 to 160 | O=c1oc(-c2ccccc2)cc(O)c1C(CC1CCCC1)SC1CCCCC1 (centres undefined)
123 to 124 | Cc1c(C=O)c2c(c(C)c1NC=O)C(c1ccc(C(C)C)cc1)CO2 (centres undefined)
97 to 99 | COc1ccc(C#N)c(Cl)c1OC(C)=O
162 to 164 | COc1cc(N)c(C(=O)CS(C)=O)cc1OC (centres undefined)
284 to 285 | Cn1cccc1C(=O)c1sc(Nc2ccc3[nH]cnc3c2)nc1N
211 | O=C1CCCc2nc(N3CCN(Cc4ccccc4)CC3)ncc2N1
280 to 283 | Cn1nc(N)c2c(=O)n3c(nc21)SCC3
189 to 191 | Cn1cc(CCN2C(=O)c3ccccc3C2=O)c2cc(CNC=O)ccc21
112 to 113 | COC(=O)C(=O)c1ccc(OCCOc2ccccc2F)cc1
263 to 265 | N=C(N)Nc1ccc(C(=O)Nc2ncc(Cl)[nH]2)cc1
118 to 120 | CCOC(=O)c1cc2c(-c3ccc(C(F)(F)F)n(C)c3=O)c(F)cc(Cl)c2o1
84 to 85 | O=C(O)CCCCCCCCCCCNC(=O)OCc1ccccc1
249 to 251 | CC(=O)NN=C(C)c1ccc2nnn(Cc3ccc4ncccc4c3)c2n1
104 | CON=C(c1ccccc1O)n1ccnc1
144 to 147 | Oc1ccc2c(c1)[C@H](O)[C@H](Cc1cccnc1)CO2 (relative stereo)
103 to 107 | Cc1ccc(S(=O)(=O)CNC=O)cc1
144 to 145 | CC(C)(C)c1cc(C(=NNc2ccccc2)c2ccccc2)cc(C(C)(C)C)c1O
36 | CO[C@H]1CC[C@H]([C@H]2CC[C@H](CCC=O)CC2)CC1
237 to 239 | O=C1NC(=O)C(c2ccccc2)(c2ccc(Br)cc2)N1 (centres undefined)
95 to 100 | CN(CCC(Oc1ccc(S(=O)(=O)c2ccccc2)cc1)c1ccccc1)CC(=O)O (centres undefined)
177 to 179 | Cc1cc(CC(=O)O)cc2c1[nH]c1ccccc12
81 to 82 | O=C(NC1(c2cccc(F)c2)CCC1)OCc1ccccc1
87 to 92 | OC(CSc1ncnc2c1cnn2CC1CO1)CN1CCN(C(c2ccccc2)c2ccccc2)CC1 (centres undefined)
140 to 141 | COC(=O)c1cccc([N+](=O)[O-])c1NCc1ccc(-c2ccccc2C#N)cc1

melting point [°C] | SMILES
51 to 52 | CCCCCCC/C=C\CCCCCCCC(=O)CCCNC(C)=O
129 to 130 | CCOC(=O)c1ccc(OCC(=O)O)cc1
157 to 158 | O=C(NO)NCCc1cc2ccccc2o1
249 to 250 | NS(=O)(=O)c1cccc(NC(=O)c2cnn3c(C4CC4)cc(-c4ccc(C(F)(F)F)cc4)nc23)c1
85 to 86 | O=C(O)CCCCCCCNS(=O)(=O)c1cccc(Cl)c1
120 to 122 | CN(O)C(=O)CCc1ccc2c(c1)Cc1ccccc1CO2
306 to 309 | Cc1ncn(-c2cc(C)c3[nH]c(=O)ccc3c2)c1[N+](=O)[O-]
144 to 146 | COCCOc1ccc(Sc2c(O)c3c(=O)n(-c4ccccc4)c4ccccc4c3oc2=O)cc1
121 to 122 | CCOC(=O)c1c(NC=CC(=O)C(C)C)sc(-c2ccc(OC)cc2)c1C
161 to 162 | Cc1cccc(-c2cc(O)c(Sc3ccccc3C(C)C)c(=O)o2)c1
218 to 222 | CC(=O)CCc1cc(F)c2ncc(C(=O)NCc3ccc(Cl)cc3)c(O)c2c1
122 | O=C(NCC1CCCO1)c1cccc(-c2ccc3c(c2)C(c2cc(Cl)ccc2Cl)CC3)c1 (centres undefined)
177 to 178 | O=C(O)c1ccc(NCc2ccc(Cl)s2)cc1
> 232 | CCC(CC)N1CSc2cnc(N)nc21
166 | COc1ccc2nccc(CCC[C@@H]3CCN(CC#Cc4ccccc4)C[C@@H]3C(=O)O)c2c1
138 | CCN(CC)CCOc1ccc(Nc2ncc3c(n2)N(C)C(=O)N(c2cc(Cl)ccc2Cl)C3)cc1
145 | O=C1COCCOCC(=O)NCCSCCSCCN1
103 | Nc1cc(-c2ccccc2)cc2ccccc12
130 to 131 | CC(C)(O)C(O)c1cnc(C2OCCO2)s1 (centres undefined)
110 to 121 | Cc1ccc(-c2nc3cc(N=C=S)ccc3o2)o1
192 to 193 | Cc1nc(Cc2ccc(NC(=O)/C=C/c3cnn(C)c3-c3ccc(F)cc3)cc2)cs1
247 to 248 | O=[N+]([O-])c1cc(Cl)ccc1/C=C/c1ccc(Cl)cc1[N+](=O)[O-]
158 to 160 | CC(C)CNC(=O)c1ccc(-c2ccc3nnn(Cc4ccc5ncccc5c4)c3n2)cc1F
191 to 192 | COc1c(Cl)cc(N=C=S)cc1C(=O)Nc1c(C)cccc1C
108 to 110 | CCC(Cc1ccccc1)(NC(=O)CN)c1ccccc1 (centres undefined)

melting point [°C] | SMILES
148 to 152 | COC(=O)c1coc(CN2C(=O)C3(COc4cc5onc(C)c5cc43)c3ccccc32)n1 (centres undefined)
142 to 146 | CC(=O)N(O)C(C)c1cccc(Nc2ccccc2-c2nnc(N)o2)c1Cl (centres undefined)
144 to 148 | CC(=O)Nc1cccc(NC(=O)C=C(C)C)c1
263 to 265 | CCCn1c(=O)c2c(NC)n[nH]c2n(Cc2cccc(Cl)c2)c1=O
48 to 49 | CCCCCCCCCCN1C(=O)C=CC1=O
258 to 263 | NC(=O)CCC(=O)Nc1c(C(=O)c2ccccc2)[nH]c2cc(Cl)ccc12
186 to 187 | Cc1oc(-c2ccccc2)nc1COc1ccc(CCCCC2OC(=O)NC2=O)cc1 (centres undefined)
179 | CC(C)CCC1(C(F)(F)F)NC(=O)Nc2ccc(F)cc21 (racemic)
81 | COc1ccc(C(O)CNC(C)C)s1 (centres undefined)
162 to 164 | O=C(O)CN1CN(c2ccccc2)C2(CCCCC2)C1
95 | Cc1ccc2cc(-c3ccccc3)ccc2n1
228 to 229 | COC(=O)C1=C(C#N)NC(C)=C(P2(=O)OCCCO2)C1c1ccccc1[N+](=O)[O-] (centres undefined)
> 300 | O=C(Nc1ccccc1C(F)(F)F)OCc1nccn1-c1cc2cc(C(=O)O)c(=O)[nH]c2cc1Cl
60 to 63 | CS(=O)(=O)c1ccc(C(CC2CCCC2)C(N)=O)cc1Br (centres undefined)
47 to 49 | Fc1cccc(C2=NOCCS2)c1
93 to 94 | CCOC(=O)COc1ccc(N2CCN(C(=O)OC(C)(C)C)CC2)cc1C=O
134 to 138 | Cc1[nH]c(Cc2ccccc2)nc1CO
289 to 291 | O=C(O)c1cc(S(=O)(=O)O)c2cccnc2c1O
168 to 169 | CCOc1ccc(C2=NN(c3ccc(C(=O)N4CCN(c5nc(-c6ccccc6)ns5)CC4)cc3)C(=O)[C@@H]3CC=CC[C@H]23)cc1OCC
48 to 50 | CC(C)(C)OC(=O)NC(CNC(=O)Nc1ccccc1)C(=O)OCc1ccccc1 (centres undefined)
181 to 183 | COCn1c(-c2ccncc2)c(C)c(CO)c1-c1ccncc1
140 to 141 | O=C(NCc1cccs1)C12CC3CC(CC(O)(C3)C1)C2

SMILES | melting point [°C]
Fc1ccccc1C1=NCC(=S)Nc2ccc(I)cc21 | 242 to 244
CC(C)(C)P(=O)(O)OCCCN | 253 to 255
CN(C)C1CCc2[nH]c3cc(OCc4ccccc4)ccc3c2C1 (centres undefined) | 237 to 239
NC1=NCC(COc2cccc(Cl)c2)O1 (centres undefined) | 128
Cc1ccc(S(=O)(=O)N2C[C@@H](Cl)C[C@@H]2CCl)cc1 | 103 to 105
COC(=O)[C@@H]1C[C@H](NS(C)(=O)=O)C(=O)[C@H]2[C@@]1(C)CC[C@H]1C(=O)O[C@H](c3ccoc3)C[C@]21C | 262 to 265
CCc1cc2c(s1)-n1c(C)nnc1C(CC(=O)Nc1ccccc1)N=C2c1ccc(Cl)cc1 (centres undefined) | 238 to 239

— a melting point compilation (Tetko et al.; mined from patent text by program, amines drawn as free bases though some values may be those of a salt)
